Where a name gives a salt, the structure may show the parent alone.
These compounds were tested on Acinetobacter baumannii ATCC 17978 (assay: Antimicrobial susceptibility testing: 90% growth inhibitory concentration (IC90) determination). Details: Acinetobacter baumannii, ATCC17978, 16 h, 90% growth inhibitory concentration; Acinetobacter baumannii ATCC17978; Iso-Sensitest broth, OD 600 nm over 16h; read-out: ATCC17978 IC90.
Assay type: cell-based
How it was run: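 Growth of the Acinetobacter baumannii strain was followed by optical density at 600 nm every 20 minutes for 16h at 35±2° C. Inoculum was ~5×10^(5) CFU/ml in Iso-Sensitest medium, with twofold compound dilutions (e.g. 50 to 0.097 μM final). The 90% inhibitory concentration was derived in log-phase growth.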

IC90 [nM]	SMILES
5000	COc1ccc(-c2cnc3c(Nc4ccc(C(=O)NCCCN(C)C)cc4)nccn23)cc1Cl [Example 263, 4-[[3-(3-chloro-4-methoxyphenyl)imidazo[1,2-a]pyrazin-8-yl]amino]-N-[3-(dimethylamino)propyl]benz-amide]
650	COc1ccc(-c2cnc3c(Nc4cc(F)c(C(=O)NCCCN)c(Cl)c4)nccn23)c(F)c1F [Example 436, N-(3-aminopropyl)-2-chloro-4-((3-(2,3-difluoro-4-methoxyphenyl)imidazo[1,2-a]pyrazin-8-yl)amino)-6-fluorobenzamide]
5100	Cc1cc(Nc2nccn3c(-c4ccc(OC(F)F)cc4)cnc23)ccc1C(=O)N(C)CCN1CCCCC1 [Example 265, 4-[[3-[4-(difluoromethoxy)phenyl]im-idazo[1,2-a]pyrazin-8-yl]amino]-N,2-dimethyl-N-(2-piperidin-1-ylethyl)benzamide]
360	CCc1cc(Nc2nccn3c(-c4ccc(OC(F)F)c(F)c4F)cnc23)ccc1C(=O)NCC(=O)NCCN(C)C [Example 404, 4-((3-(4-(difluoromethoxy)-2,3-difluorophenyl)imidazo[1,2-a]pyrazin-8-yl)amino)-N-(2-((2-(dimethylamino)ethyl)amino)-2-oxoethyl)-2-ethylbenzamide]
170	CCc1cc(Nc2nccn3c(-c4ccc(OC)c(F)c4F)cnc23)ccc1C(=O)NCC1CCN(Cc2cccnc2)CC1 [Example 554, 4-[[3-(2,3-difluoro-4-methoxy-phenyl)imidazo[1,2-a]pyrazin-8-yl]amino]-2-ethyl-N-[[1-(3-pyridylmethyl)-4-piperidyl]methyl]benzamide]
60	CCc1cc(Nc2nccn3c(-c4ccc(OC)c(F)c4F)cnc23)ccc1C(=O)NCCNC(=O)CCCCNC(=N)N [Example 139, 4-[[3-(2,3-difluoro-4-methoxy-phenyl)imidazo[1,2-a]pyrazin-8-yl]amino]-2-ethyl-N-[2-(5-guanidino-pentanoylamino)ethyl]benzamide formate]
70	CCc1cc(Nc2nccn3c(-c4ccc(OCC#N)c(F)c4F)cnc23)ccc1C(=O)NCCNC(=O)CCCN [Example 141, N-[2-(4-aminobutanoylamino)ethyl]-4-[[3-[4-(cyanomethoxy)-2,3-difluoro-phenyl]imidazo[1,2-a]pyrazin-8-yl]amino]-2-ethyl-benzamide formate]
350	Cc1cc(Nc2nccn3c(-c4ccc(Cl)c(F)c4F)cnc23)ccc1C(=O)NCCC1CCNCC1 [Example 193, 4-[[3-(4-chloro-2,3-difluorophenyl)imidazo[1,2-a]pyrazin-8-yl]amino]-2-methyl-N-(2-piperidin-4-ylethyl)benzamide;hydrochlo-ride]
1900	Cc1cc(Nc2nccn3c(-c4ccc(Cl)c(F)c4F)cnc23)ccc1C(=O)N(C)CCN [Example 241, N-(2-aminoethyl)-4-[[3-(4-chloro-2,3-difluorophenyl)imidazo[1,2-a]pyrazin-8-yl]amino]-N,2-dimethylbenzamide;hydrochlo-ride]
2700	Cc1cc(Nc2nccn3c(-c4ccc(OC(F)F)cc4)cnc23)ccc1C(=O)NC(CO)CN1CCOCC1 (stereo not shown) [Example 251, 4-[[3-[4-(difluoromethoxy)phenyl]im-idazo[1,2-a]pyrazin-8-yl]amino]-N-(1-hydroxy-3-morpholin-4-ylpropan-2-yl)-2-methylbenzamide]
980	CCc1cc(Nc2nccn3c(-c4ccc(Oc5ccncn5)c(F)c4F)cnc23)ccc1C(=O)N[C@@H](C)CNC(=O)[C@@H](N)CCNC(=N)N [Example 457, N-[(1S)-2-[[(2S)-2-amino-4-guanidino-butanoyl]amino]-1-methyl-ethyl]-4-[[3-(2,3-difluoro-4-pyrimidin-4-yloxy-phenyl)imidazo[1,2-a]pyrazin-8-yl]amino]-2-ethyl-benzamide; formic acid]
250	CCc1cc(Nc2nccn3c(-c4ccc(OC)c(F)c4F)cnc23)ccc1C(=O)NCC1(O)CCNC1 (stereo not shown) [Example 528, 4-((3-(2,3-difluoro-4-methoxyphenyl)imidazo[1,2-a]pyrazin-8-yl)amino)-2-ethyl-N-((3-hydroxypyrrolidin-3-yl)methyl)benzamide hydrochloride]
220	COc1ccc(-c2cnc3c(Nc4ccc5c(c4)CCCNC5=O)nccn23)cc1F [Example 390, 7-[[3-(3-fluoro-4-methoxy-phenyl)imidazo[1,2-a]pyrazin-8-yl]amino]-2,3,4,5-tetrahydro-2-benzazepin-1-one hydrochloride]
770	COc1ccc(-c2cnc3c(Nc4ccc(C(=O)NCCN5CCNC(=O)C5)c(C)c4)nccn23)cc1F [Example 216, 4-[[3-(3-fluoro-4-methoxyphenyl)imidazo[1,2-a]pyrazin-8-yl]amino]-2-methyl-N-[2-(3-oxopiperazin-1-yl)ethyl]benzamide]
490	Cc1cc(Nc2nccn3c(-c4ccc(OC(F)F)cc4)cnc23)ccc1C(=O)NCCN1CCNCC1 [Example 46]
260	COc1ccc(-c2cnc3c(Nc4ccc(C(=O)NCC5CCNCC5)c(C)c4)nccn23)c(F)c1F [Example 55, 4-[[3-(2,3-difluoro-4-methoxy-phenyl)imidazo[1,2-a]pyrazin-8-yl]amino]-2-methyl-N-(4-piperidylmethyl) benzamide]
210	CCc1cc(Nc2nccn3c(-c4ccc(OC)c(F)c4F)cnc23)ccc1C(=O)NCC1(F)CNC1 [Example 526, 4-((3-(2,3-difluoro-4-methoxyphenyl)imidazo[1,2-a]pyrazin-8-yl)amino)-2-ethyl-N-((3-fluoroazetidin-3-yl)methyl)benzamide hydrochloride]
70	CCc1cc(Nc2nccn3c(-c4ccc(OC)c(F)c4F)cnc23)ccc1C(=O)NCCNC(=O)CCCN [Example 360, N-[2-(4-aminobutanoylamino)ethyl]-4-[[3-(2,3-difluoro-4-methoxyphenyl)imidazo[1,2-a]pyrazin-8-yl]amino]-2-ethylbenzamide]
640	COc1ccc(-c2cnc3c(Nc4ccc(C(=O)NCC5CCNCC5)c(C)c4)nccn23)cc1 [Example 211, 4-[[3-(4-methoxyphenyl)imidazo[1,2-a]pyrazin-8-yl]amino]-2-methyl-N-(piperidin-4-ylmethyl)benzamide;hydrochlo-ride]
2000	COc1ccc(-c2cnc3c(Nc4ccc(C(=O)N(C)CC(=O)N5CCOCC5)c(C)c4)nccn23)cc1F [Example 8, 4-[[3-(3-fluoro-4-methoxy-phenyl)imidazo[1,2-a]pyrazin-8-yl]amino]-N,2-dimethyl-N-(2-morpholino-2-oxo-ethyl)benzamide]
260	CCc1cc(Nc2nccn3c(-c4ccc(OC)c(F)c4F)cnc23)ccc1C(=O)NCCNC(=O)[C@@H](N)[C@@H](C)O [Example 393, N-[2-[[(2S,3R)-2-amino-3-hydroxy-butanoyl]amino]ethyl]-4-[[3-(2,3-difluoro-4-methoxy-phenyl)imidazo[1,2-a]pyrazin-8-yl]amino]-2-ethyl-benzamide; formic acid]
190	CCc1cc(Nc2nccn3c(-c4ccc(Oc5ccncn5)c(F)c4F)cnc23)ccc1C(=O)NCCCNC(=O)CCCNCCCN [Example 563, N-[3-[4-(3-aminopropylamino)butanoyl-amino]propyl]-4-[[3-(2,3-difluoro-4-pyrimidin-4-yloxy-phenyl)imidazo[1,2-a]pyrazin-8-yl]amino]-2-ethyl-benzamide; formic acid]
250	CCc1cc(Nc2nccn3c(-c4ccc(OC)c(F)c4Cl)cnc23)ccc1C(=O)NCCNC(=O)[C@H](N)CCCNC(=N)N [Example 129, N-[2-[[(2R)-2-amino-5-guanidino-pentanoyl]amino]ethyl]-4-[[3-(2-chloro-3-fluoro-4-methoxy-phenyl)imidazo[1,2-a]pyrazin-8-yl]amino]-2-ethyl-benzamide formate]
340	COc1ccc(-c2cnc3c(Nc4ccc(C(=O)NCCCN)c(CCF)c4)nccn23)c(F)c1F [Example 392, N-(3-aminopropyl)-4-[[3-(2,3-difluoro-4-methoxy-phenyl)imidazo[1,2-a]pyrazin-8-yl]amino]-2-(2-fluoroethyl)benzamide]
650	CCc1cc(Nc2nccn3c(-c4ccc(Cl)c(F)c4F)cnc23)ccc1C(=O)NCCNC(=O)[C@@H](N)CCCNC(=N)N [Example 341, N-[2-[[(2S)-2-amino-5-carbamimidamidopentanoyl]amino]ethyl]-4-[[3-(4-chloro-2,3-difluorophenyl)imidazo[1,2-a]pyrazin-8-yl]amino]-2-ethylbenzamide]
480	COc1ccc(-c2cnc3c(Nc4ccc(C(=O)NC[C@@H](N)CNC(=O)[C@@H]5C[C@@H](O)CN5)c(C)c4)nccn23)c(F)c1F [Example 468, (2S,4R)-N-[(2R)-2-amino-3-[[4-[[3-(2,3-difluoro-4-methoxy-phenyl)imidazo[1,2-a]pyrazin-8-yl]amino]-2-methyl-benzoyl]amino]propyl]-4-hydroxy-pyrrolidine-2-carboxamide; formic acid]
270	COc1ccc(-c2cnc3c(Nc4ccc(C(=O)NCCCN5CCNCC5=O)c(C)c4)nccn23)c(F)c1F [Example 69, 4-((3-(2,3-difluoro-4-methoxyphenyl)imidazo [1,2-a]pyrazin-8-yl)amino)-2-methyl-N-(3-(2-oxopiperazin-1-yl)propyl)benzamide]
340	CCc1cc(Nc2nccn3c(-c4ccc(OC(F)F)c(F)c4F)cnc23)ccc1C(=O)NCCNC(=O)[C@@H](N)CCCNC(=N)N [Example 333, N-[2-[[(2S)-2-amino-5-carbamimidamidopentanoyl]amino]ethyl]-4-[[3-[4-(difluoromethoxy)-2,3-difluorophenyl]imidazo[1,2-a]pyrazin-8-yl]amino]-2-ethylbenzamide;formic acid]

From US20230012368A1 (Hoffmann-La Roche Inc., priority 2018, published 2023)
